Counter-ions that a name gives are not always drawn.
Compared with `Fc1ccccc1/C(=N\Cc1ccccc1)N1CCNCC1` (as salt: hydrochloride) [Compound I-7, (E)-N-((2-Fluorophenyl)(piperazin-1-yl)methylene)-1-phenylmethanaminehydrochloride], `Fc1ccccc1/C(=N\Cc1ccc(Cl)cc1)N1CCNCC1` (as salt: hydrochloride) [Compound I-17, (E)-1-(4-Chlorophenyl)-N-((2-fluorophenyl)(piperazin-1-yl)methylene)methanaminehydrochloride] is higher in melting point: 182 to 184 °C for the first, 215 to 217 °C for the second.

First: N#Cc1ccc(/C(=N\Cc2ccccc2)N2CCNCC2)cc1 (as salt: hydrochloride) [Compound I-8, (E)-4-((Benzylimino)(piperazin-1-yl)methyl)benzonitrilehydrochloride]
Second: Cc1ccc(/C(=N\Cc2ccccc2)N2CCNCC2)cc1 (as salt: hydrochloride) [Compound I-10, (E)-1-Phenyl-N-(piperazin-1-yl(p-tolyl)methylene)methanaminehydrochloride]
The melting point of the first is higher: 205 to 207 °C for the first, 172 to 174 °C for the second.

First: N#Cc1cccc(/C(=N\Cc2ccccc2)N2CCNCC2)c1 (as salt: hydrochloride) [Compound I-9, (E)-3-((Benzylimino)(piperazin-1-yl)methyl)benzonitrilehydrochloride]
Second: O=[N+]([O-])c1ccc(/C(=N\Cc2ccccc2)N2CCNCC2)c(Cl)c1 (as salt: hydrochloride) [Compound I-11, (E)-N-((2-Chloro-4-nitrophenyl)(piperazin-1-yl)methylene)-1-phenylmethanaminehydrochloride]
The melting point of the first is lower: 190 to 192 °C for the first, 195 to 197 °C for the second.

Compared with `O=[N+]([O-])c1ccc(/C(=N\Cc2ccc(Cl)cc2)N2CCNCC2)cc1` (as salt: hydrochloride) [Compound I-12, (E)-1-(4-Chlorophenyl)-N-((4-nitrophenyl)(piperazin-1-yl)methylene)methanaminehydrochloride], `COc1ccc(C/N=C(\c2ccc([N+](=O)[O-])cc2)N2CCNCC2)cc1` (as salt: hydrochloride) [Compound I-21, (E)-1-(4-Methoxyphenyl)-N-((4-nitrophenyl)(piperazin-1-yl)methylene)methanaminehydrochloride] is higher in melting point: 172 to 174 °C for the first, 210 to 212 °C for the second.

Compared with `Clc1ccc(C/N=C(\c2ccccc2Cl)N2CCNCC2)cc1` (as salt: hydrochloride) [Compound I-13, (E)-1-(4-Chlorophenyl)-N-((2-chlorophenyl)(piperazin-1-yl)methylene)methanaminehydrochloride], `Clc1ccc(C/N=C(\c2cccc(Cl)c2)N2CCNCC2)cc1` (as salt: hydrochloride) [Compound I-14, (E)-1-(4-Chlorophenyl)-N-((3-chlorophenyl)(piperazin-1-yl)methylene)methanaminehydrochloride] is higher in melting point: 181 to 183 °C for the first, 218 to 220 °C for the second.

First: Clc1ccc(C/N=C(\c2ccc(Cl)cc2)N2CCNCC2)cc1 (as salt: hydrochloride) [Compound I-15, (E)-1-(4-Chlorophenyl)-N-((4-chlorophenyl)(piperazin-1-yl)methylene)methanaminehydrochloride]
Second: Fc1ccc(/C(=N\Cc2ccc(Cl)cc2)N2CCNCC2)cc1 (as salt: hydrochloride) [Compound I-16, (E)-1-(4-Chlorophenyl)-N-((4-fluorophenyl)(piperazin-1-yl)methylene)methanaminehydrochloride]
The melting point of the first is lower: 157 to 159 °C for the first, 165 to 167 °C for the second.

Compared with `N#Cc1ccc(/C(=N\Cc2ccc(Cl)cc2)N2CCNCC2)cc1` (as salt: hydrochloride) [Compound I-18, (E)-1-(4-Chlorophenyl)-N-((4-cyanophenyl)(piperazin-1-yl)methylene)methanaminehydrochloride], `Cc1ccc(/C(=N\Cc2ccc(Cl)cc2)N2CCNCC2)cc1` (as salt: hydrochloride) [Compound I-20, (E)-1-(4-Chlorophenyl)-N-(piperazin-1-yl(p-tolyl)methylene)methanaminehydrochloride] is higher in melting point: 180 to 182 °C for the first, 183 to 185 °C for the second.
